# Where “and” joins values, the source holds several entries; their conditions need not be identical. Equal entries are not always repeated. Where two headings read alike, the source gives them in different places.
# Legend:
# tumor = settings: animal models; cited from earlier work
# [1] = tested on: 60 cancer cell lines (NCI 60 cancer cell line series); assay: NCI-DTP in vitro cancer screen, sulforhodamine B (SRB) growth inhibition, 48 hour exposure; assay type: cell-based, human; set-up: key to sensitivity class Ovarian OVCAR-8 CL6005 / sensitivity class Ovarian SK-OV-3 CL6011 / sensitivity class Prostate DU-145 CL11003 / sensitivity class NSCLC NCI-H522 CL1003 / sensitivity class Ovarian IGROV1 CL6010 / sensitivity class Ovarian OVCAR-4 CL6002 / sensitivity class Prostate PC-3(I) CL11001 / sensitivity class Renal A498 CL9013 / sensitivity class Renal SN12C CL9008: sensitivity class: 1 = Low, 2 = Medium, 3 = High; settings: for sensitivity class NSCLC NCI-H23(I) CL1001: cell line NSCLC NCI-H23(I); for sensitivity class NSCLC NCI-H522 CL1003: cell line NSCLC NCI-H522, CL1003; for sensitivity class Ovarian IGROV1 CL6010: cell line Ovarian IGROV1, CL6010; for sensitivity class Ovarian OVCAR-4 CL6002: cell line Ovarian OVCAR-4, CL6002; for sensitivity class Ovarian OVCAR-5 CL6003: cell line Ovarian OVCAR-5, CL6003; for sensitivity class Ovarian OVCAR-8 CL6005: cell line Ovarian OVCAR-8, CL6005; for sensitivity class Prostate DU-145 CL11003: cell line Prostate DU-145, CL11003; for sensitivity class Renal A498 CL9013: cell line Renal A498, CL9013
# Method in brief: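 Values come from the NCI-DTP screen database: -log GI50, the concentration giving 50% growth inhibition, derived from SRB cell-mass dose-response curves. Each line seeded at its own density, treated day 1 at five ten-fold-spaced doses in duplicate wells, stained after 48 h.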
# [2] = tested on: 60 cancer cell lines (NCI 60 cancer cell line series); settings: cited from earlier work
molecule,measurement,setting,value
"CC(=O)O[C@@]12CO[C@@H]1C[C@H](O)[C@@]1(C)C(=O)[C@H](O)C3=C(C)[C@@H](OC(=O)[C@H](O)[C@@H](NC(=O)OC(C)(C)C)c4ccccc4)C[C@@](O)([C@@H](OC(=O)c4ccccc4)[C@H]21)C3(C)C [Taxotere, docetaxel]",anti-tumor activity,tumor,good anti-tumor activity
"N.N.[Cl][Pt][Cl] [cisplatin, cis-Diamminedichloroplatinum (II), reference compound]","classification of cell line as Low(1), Medium(2) or High(3) sensitivity to compound",[1]; Breast BT-549 (CL5013),2
same,"classification of cell line as Low(1), Medium(2) or High(3) sensitivity to compound",[1]; Breast HS-578T CL5006,2
same,"classification of cell line as Low(1), Medium(2) or High(3) sensitivity to compound",[1]; Breast MCF7/ADRr (CL5002),2
same,"classification of cell line as Low(1), Medium(2) or High(3) sensitivity to compound",[1]; Breast MDA-MB-231 CL5005,1
same,"classification of cell line as Low(1), Medium(2) or High(3) sensitivity to compound",[1]; Breast MDA-N CL5012,2
same,"classification of cell line as Low(1), Medium(2) or High(3) sensitivity to compound",[1]; Breast T-47D (CL5014),1
same,"classification of cell line as Low(1), Medium(2) or High(3) sensitivity to compound",[1]; CNS SF-268 CL12014,3
same,"classification of cell line as Low(1), Medium(2) or High(3) sensitivity to compound",[1]; CNS SF-539 CL12016,2
same,"classification of cell line as Low(1), Medium(2) or High(3) sensitivity to compound",[1]; CNS SNB-75(I) CL12005,2
same,"classification of cell line as Low(1), Medium(2) or High(3) sensitivity to compound",[1]; CNS U251(I) CL12009,2
same,"classification of cell line as Low(1), Medium(2) or High(3) sensitivity to compound",[1]; Colon COLO-250 CL4010,1
same,"classification of cell line as Low(1), Medium(2) or High(3) sensitivity to compound",[1]; Colon HCC-2998 (CL4002),2
same,"classification of cell line as Low(1), Medium(2) or High(3) sensitivity to compound",[1]; Colon HCT-15 CL4015,1
same,"classification of cell line as Low(1), Medium(2) or High(3) sensitivity to compound",[1]; Colon HT29(I) CL4001,1
same,"classification of cell line as Low(1), Medium(2) or High(3) sensitivity to compound",[1]; Colon SW-620 (CL4009),2
same,"classification of cell line as Low(1), Medium(2) or High(3) sensitivity to compound",[1]; Leukemia HL-60(I) (CL7008),3
same,"classification of cell line as Low(1), Medium(2) or High(3) sensitivity to compound",[1]; Leukemia K562(I) CL7005,2
same,"classification of cell line as Low(1), Medium(2) or High(3) sensitivity to compound",[1]; Leukemia RPMI-8226(I) (CL7010),2
same,"classification of cell line as Low(1), Medium(2) or High(3) sensitivity to compound",[1]; Melanoma LOX IMVI CL10001,3
same,"classification of cell line as Low(1), Medium(2) or High(3) sensitivity to compound",[1]; Melanoma M14 (CL10014),2
same,sensitivity class NSCLC NCI-H23(I) CL1001,[1],3
same,sensitivity class NSCLC NCI-H460 CL1021,"[1]; cell line NSCLC NCI-H460, CL1021",3
same,sensitivity class NSCLC NCI-H522 CL1003,[1],2
same,sensitivity class Ovarian IGROV1 CL6010,[1],2
same,sensitivity class Ovarian OVCAR-4 CL6002,[1],2
same,sensitivity class Ovarian OVCAR-5 CL6003,[1],2
same,sensitivity class Ovarian OVCAR-8 CL6005,[1],2
same,sensitivity class Prostate DU-145 CL11003,[1],2
same,sensitivity class Renal A498 CL9013,[1],1
same,sensitivity class Renal RXF-393 CL9016,"[1]; cell line Renal RXF-393, CL9016",2
same,sensitivity class Renal UO-31 CL9004,"[1]; cell line Renal UO-31, CL9004",2
same,-Log (GI50),[2]; Breast MCF7(I) (CL5001),5.5
same,-Log (GI50),[2]; Ovarian SK-OV-3 CL6011,5.2
Bleomycin,"classification of cell line as Low(1), Medium(2) or High(3) sensitivity to compound",[1]; Breast MCF7(I) (CL5001),2
same,"classification of cell line as Low(1), Medium(2) or High(3) sensitivity to compound",[1]; Breast MCF7/ADRr (CL5002),2
same,"classification of cell line as Low(1), Medium(2) or High(3) sensitivity to compound",[1]; Breast MDA-MB-231 CL5005,1
same,"classification of cell line as Low(1), Medium(2) or High(3) sensitivity to compound",[1]; Breast MDA-MB-435 (CL5011),1
same,"classification of cell line as Low(1), Medium(2) or High(3) sensitivity to compound",[1]; Breast MDA-N CL5012,1
same,"classification of cell line as Low(1), Medium(2) or High(3) sensitivity to compound",[1]; Breast T-47D (CL5014),2
same,"classification of cell line as Low(1), Medium(2) or High(3) sensitivity to compound",[1]; CNS SF-268 CL12014,2
same,"classification of cell line as Low(1), Medium(2) or High(3) sensitivity to compound",[1]; CNS SF-295 CL12015,3
same,"classification of cell line as Low(1), Medium(2) or High(3) sensitivity to compound",[1]; CNS SF-539 CL12016,3
same,"classification of cell line as Low(1), Medium(2) or High(3) sensitivity to compound",[1]; CNS SNB-19 (CL12002),2
same,"classification of cell line as Low(1), Medium(2) or High(3) sensitivity to compound",[1]; CNS SNB-75(I) CL12005,2
same,"classification of cell line as Low(1), Medium(2) or High(3) sensitivity to compound",[1]; CNS U251(I) CL12009,2
same,"classification of cell line as Low(1), Medium(2) or High(3) sensitivity to compound",[1]; Colon COLO-250 CL4010,2
same,"classification of cell line as Low(1), Medium(2) or High(3) sensitivity to compound",[1]; Colon HCT-15 CL4015,2
same,"classification of cell line as Low(1), Medium(2) or High(3) sensitivity to compound",[1]; Colon HCT-116 (CL4003),2
same,"classification of cell line as Low(1), Medium(2) or High(3) sensitivity to compound",[1]; Colon HT29(I) CL4001,1
same,"classification of cell line as Low(1), Medium(2) or High(3) sensitivity to compound",[1]; Colon KM12 (CL4017),1
same,"classification of cell line as Low(1), Medium(2) or High(3) sensitivity to compound",[1]; Colon SW-620 (CL4009),2
same,"classification of cell line as Low(1), Medium(2) or High(3) sensitivity to compound",[1]; Leukemia CCRF-CEM(I) (CL7003),2
same,"classification of cell line as Low(1), Medium(2) or High(3) sensitivity to compound",[1]; Leukemia HL-60(I) (CL7008),2
same,"classification of cell line as Low(1), Medium(2) or High(3) sensitivity to compound",[1]; Leukemia K562(I) CL7005,2
same,"classification of cell line as Low(1), Medium(2) or High(3) sensitivity to compound",[1]; Leukemia MOLT-4 (CL7006),2
same,"classification of cell line as Low(1), Medium(2) or High(3) sensitivity to compound",[1]; Leukemia SR CL7019,3
same,"classification of cell line as Low(1), Medium(2) or High(3) sensitivity to compound",[1]; Melanoma LOX IMVI CL10001,3
same,"classification of cell line as Low(1), Medium(2) or High(3) sensitivity to compound",[1]; Melanoma M14 (CL10014),2
same,"classification of cell line as Low(1), Medium(2) or High(3) sensitivity to compound",[1]; Melanoma MALME-3M CL10002,2
same,sensitivity class NSCLC NCI-H23(I) CL1001,[1],2
same,sensitivity class NSCLC NCI-H332M CL1017,"[1]; cell line NSCLC NCI-H332M, CL1017",1
same,sensitivity class NSCLC NCI-H522 CL1003,[1],2
same,sensitivity class Ovarian IGROV1 CL6010,[1],2
same,sensitivity class Ovarian OVCAR-3 CL6001,"[1]; cell line Ovarian OVCAR-3, CL6001",2
same,sensitivity class Ovarian OVCAR-4 CL6002,[1],2
same,sensitivity class Ovarian OVCAR-5 CL6003,[1],2
same,sensitivity class Ovarian OVCAR-8 CL6005,[1],2
same,sensitivity class Ovarian SK-OV-3 CL6011,"[1]; cell line Ovarian SK-OV-3, CL6011",2
same,sensitivity class Prostate DU-145 CL11003,[1],2
same,sensitivity class Prostate PC-3(I) CL11001,"[1]; cell line Prostate PC-3(I), CL11001",2
same,sensitivity class Renal 786-O CL9018,"[1]; cell line Renal 786-O, CL9018",2
same,sensitivity class Renal A498 CL9013,[1],2
same,sensitivity class Renal ACHN CL9023,"[1]; cell line Renal ACHN, CL9023",3
same,sensitivity class Renal SN12C CL9008,"[1]; cell line Renal SN12C, CL9008",2
same,sensitivity class Renal TK10 CL9024,"[1]; cell line Renal TK10, CL9024",1
same,1 # of Low,[1]; number of the 60 cell lines classified Low (1) sensitivity,12
same,-Log (GI50),[2]; Breast BT-549 (CL5013),5.0 and 5.1
same,-Log (GI50),[2]; Breast MCF7(I) (CL5001),5.7 and 5.5
same,-Log (GI50),[2]; Breast MCF7/ADRr (CL5002),6.1 and 6.0
same,-Log (GI50),[2]; Breast MDA-MB-435 (CL5011),4.7 and 4.6
same,-Log (GI50),[2]; Breast MDA-N CL5012,4.8 and 4.6
same,-Log (GI50),[2]; Breast T-47D (CL5014),5.3 and 5.2
same,-Log (GI50),[2]; CNS SF-295 CL12015,7.0 and 7.2
same,-Log (GI50),[2]; CNS SF-539 CL12016,7.7
same,-Log (GI50),[2]; CNS SNB-19 (CL12002),5.4 and 5.5
same,-Log (GI50),[2]; Colon COLO-250 CL4010,5.2 and 5.3
same,-Log (GI50),[2]; Colon HCC-2998 (CL4002),5.0 and 4.7
same,-Log (GI50),[2]; Colon HCT-116 (CL4003),6.4 and 6.2
same,-Log (GI50),[2]; Colon HT29(I) CL4001,4.9 and 4.8
same,-Log (GI50),[2]; Colon KM12 (CL4017),4.9 and 4.8
same,-Log (GI50),[2]; Colon SW-620 (CL4009),5.1 and 5.0
same,-Log (GI50),[2]; Leukemia HL-60(I) (CL7008),5.2 and 5.3
same,-Log (GI50),[2]; Leukemia MOLT-4 (CL7006),5.9 and 6.2
same,-Log (GI50),[2]; Leukemia RPMI-8226(I) (CL7010),4.8 and 4.9
same,-Log (GI50),[2]; Melanoma LOX IMVI CL10001,6.8
same,-Log (GI50),[2]; Melanoma M14 (CL10014),5.8 and 5.5
same,-Log (GI50),[2]; NSCLC NCI-H23(I) CL1001,6.2 and 6.3
same,-Log (GI50),[2]; NSCLC NCI-H332M CL1017,4.8 and 4.5
same,-Log (GI50),[2]; Ovarian OVCAR-3 CL6001,5.3
same,-Log (GI50),[2]; Ovarian OVCAR-8 CL6005,5.5 and 5.8
same,-Log (GI50),[2]; Ovarian SK-OV-3 CL6011,5.2 and 5.4
same,-Log (GI50),[2]; Prostate DU-145 CL11003,5.4 and 5.5
same,-Log (GI50),[2]; Prostate PC-3(I) CL11001,5.1 and 5.3
same,-Log (GI50),[2]; Renal ACHN CL9023,8.1 and 7.9
same,-Log (GI50),[2]; Renal RXF-393 CL9016,6.7 and 6.6
same,-Log (GI50),[2]; Renal SN12C CL9008,6.0 and 5.9
same,-Log (GI50),[2]; Renal TK10 CL9024,5.0 and 4.7
